Assay results from patent publication US20250320213A1, “Nitrogen-Containing Heterocyclic Compounds” (Pfizer Inc., priority 2024, published 2025).

Columns and labels:
[1] = test system: CCL17 secretion in peripheral human whole blood; assay: Human Whole Blood (HWB) CCL17 TR-FRET Assay (IL-13 stimulated CCL17 secretion); type: cell-based; conditions: inhibition of CCL17 secretion in human whole blood, 10 ng/mL IL13, 48 hours
Procedure, shortened: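 Heparin-anticoagulated human blood; cpd 11-pt 3-fold dilution, duplicate, 2 h 37 °C preinc; IL-13 10 ng/mL final, 48 h 37 °C; spin, serum CCL17 by TR-FRET ELISA, 16 h RT, 665/615 ratio; IC50.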

STAT6 = biological target: T1, STAT6 (Homo sapiens, UniProt P42226); assay: STAT6 Reporter Luciferase Assay (IL-13 stimulated HaCaT keratinocyte NanoLuc reporter cells); type: cell-based; conditions: STAT6 NanoLuc luciferase reporter, IL-13 stimulated HaCaT keratinocyte cells; read-out: Reporter EC50
T1 construct: stably transfected HaCaT keratinocyte cell line, which expresses NanoLuc luciferase reporter gene under the transcriptional control of the STAT6 responsive promoter; endogenous in cells; host or cells: HaCaT keratinocyte reporter cell line (stably transfected with a NanoLuc reporter)
T1 sequence (P42226 1-847): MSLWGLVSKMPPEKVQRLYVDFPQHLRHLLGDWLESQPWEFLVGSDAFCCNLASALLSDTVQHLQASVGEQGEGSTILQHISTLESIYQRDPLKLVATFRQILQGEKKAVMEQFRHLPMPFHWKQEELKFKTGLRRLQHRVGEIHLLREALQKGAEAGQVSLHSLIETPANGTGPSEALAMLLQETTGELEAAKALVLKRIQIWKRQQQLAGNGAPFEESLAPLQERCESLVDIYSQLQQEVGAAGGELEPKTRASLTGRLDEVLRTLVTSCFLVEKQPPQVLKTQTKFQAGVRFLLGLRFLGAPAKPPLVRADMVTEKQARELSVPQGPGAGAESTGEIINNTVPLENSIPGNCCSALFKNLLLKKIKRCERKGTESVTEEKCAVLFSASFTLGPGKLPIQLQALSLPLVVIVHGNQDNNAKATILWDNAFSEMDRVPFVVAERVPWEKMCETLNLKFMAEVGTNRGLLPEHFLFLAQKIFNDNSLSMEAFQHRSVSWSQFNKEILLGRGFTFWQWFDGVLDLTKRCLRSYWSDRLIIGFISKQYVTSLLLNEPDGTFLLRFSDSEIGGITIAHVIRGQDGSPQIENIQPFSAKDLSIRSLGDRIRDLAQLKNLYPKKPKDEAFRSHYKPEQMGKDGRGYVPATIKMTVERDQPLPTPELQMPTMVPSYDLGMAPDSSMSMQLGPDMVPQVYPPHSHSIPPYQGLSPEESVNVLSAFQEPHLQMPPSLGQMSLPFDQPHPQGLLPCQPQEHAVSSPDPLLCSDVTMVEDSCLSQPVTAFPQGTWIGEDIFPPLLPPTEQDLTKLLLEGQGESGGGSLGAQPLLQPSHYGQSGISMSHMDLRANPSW
Procedure, shortened: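 Luminescence from a NanoLuc reporter driven by the STAT6-responsive IL-13Ra2 promoter in HaCaT keratinocytes serves as the read-out. Compounds are given 2 h before a 4 h stimulation with 0.12 nM IL-13.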

Row | Compound | IC50 ([1]; Homo sapiens, 48 h) [nM] | EC50 (STAT6) [nM] | IC50 [1] [nM]
1 | CNC(=O)Nc1ccc(CNC(=O)c2nn(C(C)C)c3c2CN(c2ccc(C(=O)N(C)C)cn2)CC3)cc1 [Example 134, 5-(5-(dimethylcarbamoyl)pyridin-2-yl)-1-isopropyl-N-(4-(3-methylureido)benzyl)-4,5,6,7-tetrahydro-1H-pyrazolo[4,3-c]pyridine-3-carboxamide] | 46 | 7 | –
2 | CNC(=O)c1ccc(N2CCc3c(c(C(=O)NCc4ccc(NC(=O)N(C)C)cc4)nn3C(C)C)C2)nc1 [Example 135, N-(4-(3,3-dimethylureido)benzyl)-1-isopropyl-5-(5-(methylcarbamoyl)pyridin-2-yl)-4,5,6,7-tetrahydro-1H-pyrazolo[4,3-c]pyridine-3-carboxamide] | 1270 | 136 | –
3 | CC(C)n1nc(C(=O)NCc2ccc(NC(=O)N3CCCC3)cc2)c2c1CCN(c1ccc(C(=O)N(C)C)cn1)C2 [Example 136, 5-(5-(Dimethylcarbamoyl)pyridin-2-yl)-1-isopropyl-N-(4-(pyrrolidine-1-carboxamido)benzyl)-4,5,6,7-tetrahydro-1H-pyrazolo[4,3-c]pyridine-3-carboxamide] | – | 12 | 196
4 | CC(C)n1nc(C(=O)NCc2ccc(NC(=O)N(C)C)cc2)c2c1CCN(c1ccc(C(N)=O)cn1)C2 [Example 137, 5-(5-carbamoylpyridin-2-yl)-N-(4-(3,3-dimethylureido)benzyl)-1-isopropyl-4,5,6,7-tetrahydro-1H-pyrazolo[4,3-c]pyridine-3-carboxamide] | 9690 | 1860 | –
5 | CC(C)n1nc(C(=O)NCc2ccc(NC(=O)N(C)C)cc2)c2c1CCN(c1ccc(NS(C)(=O)=O)cn1)C2 [Example 138, N-(4-(3,3-dimethylureido)benzyl)-1-isopropyl-5-(5-(methylsulfonamido)pyridin-2-yl)-4,5,6,7-tetrahydro-1H-pyrazolo[4,3-c]pyridine-3-carboxamide] | 1140 | 248 | –
6 | CC(C)n1nc(C(=O)NCc2ccc(NC(=O)N(C)C)cc2)c2c1C[C@H](C)N(c1ccc(C(=O)N(C)C)cn1)C2 [Example 139, (S)-5-(5-(dimethylcarbamoyl)pyridin-2-yl)-N-(4-(3,3-dimethylureido)benzyl)-1-isopropyl-6-methyl-4,5,6,7-tetrahydro-1H-pyrazolo[4,3-c]pyridine-3-carboxamide] | 7 | 2 | –
7 | CC(C)n1nc(C(=O)NCc2ccc(NC(=O)N3C[C@@H](F)[C@@H](F)C3)cc2)c2c1CCN(c1ccc(C(=O)N(C)C)cn1)C2 [Example 140, N-(4-((3R,4S)-3,4-difluoropyrrolidine-1-carboxamido)benzyl)-5-(5-(dimethylcarbamoyl)pyridin-2-yl)-1-isopropyl-4,5,6,7-tetrahydro-1H-pyrazolo[4,3-c]pyridine-3-carboxamide] | 144 | 12 | –
8 | CC(C)n1nc(C(=O)NCc2ccc(NC(=O)N3C[C@@H]4CC[C@H]3CO4)cc2)c2c1CCN(c1ccc(C(=O)N(C)C)cn1)C2 [Example 142, (1S,4S)-N-(4-((5-(5-(dimethylcarbamoyl)pyridin-2-yl)-1-isopropyl-4,5,6,7-tetrahydro-1H-pyrazolo[4,3-c]pyridine-3-carboxamido)methyl)phenyl)-2-oxa-5-azabicyclo[2.2.2]octane-5-carboxamide] | 39 | 15 | –
9 | CC(C)n1nc(C(=O)NCc2ccc(NC(=O)N(C)C)cc2)c2c1CCN(c1ccc(N3CCCS3(=O)=O)cn1)C2 [Example 146, N-(4-(3,3-dimethylureido)benzyl)-5-(5-(1,1-dioxidoisothiazolidin-2-yl)pyridin-2-yl)-1-isopropyl-4,5,6,7-tetrahydro-1H-pyrazolo[4,3-c]pyridine-3-carboxamide] | 2120 | 127 | –
10 | CN(C)C(=O)Nc1ccc(CNC(=O)c2nn(C(C)(C)C)c3c2CN(c2ccc(C(=O)N(C)C)cn2)CC3)cc1 [Example 148, 1-(tert-butyl)-5-(5-(dimethylcarbamoyl)pyridin-2-yl)-N-(4-(3,3-dimethylureido)benzyl)-4,5,6,7-tetrahydro-1H-pyrazolo[4,3-c]pyridine-3-carboxamide] | 176 | 10 | –
11 | CC(C)n1nc(C(=O)NCc2ccc(NC(=O)NCC3CC3)cc2)c2c1CCN(c1ccc(C(=O)N(C)C)cn1)C2 [Example 154, N-(4-(3-(cyclopropylmethyl)ureido)benzyl)-5-(5-(dimethylcarbamoyl)pyridin-2-yl)-1-isopropyl-4,5,6,7-tetrahydro-1H-pyrazolo[4,3-c]pyridine-3-carboxamide] | 449 | 8 | –

The next lines start with results.

Row | IC50 ([1]; Homo sapiens, 48 h) [nM] | EC50 (STAT6) [nM] | Compound | IC50 [1] [nM]
12 | 48 | 28 | CC(C)n1nc(C(=O)NCc2ccc(NC(N)=O)cc2)c2c1CCN(c1ccc(C(=O)N(C)C)cn1)C2 [Example 133, 5-(5-(dimethylcarbamoyl)pyridin-2-yl)-1-isopropyl-N-(4-ureidobenzyl)-4,5,6,7-tetrahydro-1H-pyrazolo[4,3-c]pyridine-3-carboxamide] | –
13 | 78 | 22 | CC(C)n1nc(C(=O)NCc2ccc(NC(=O)N3CC(N(C)C)C3)cc2)c2c1CCN(c1ccc(C(=O)N(C)C)cn1)C2 [Example 141, N-(4-(3-(dimethylamino)azetidine-1-carboxamido)benzyl)-5-(5-(dimethylcarbamoyl)pyridin-2-yl)-1-isopropyl-4,5,6,7-tetrahydro-1H-pyrazolo[4,3-c]pyridine-3-carboxamide] | –
14 | 292 | 7 | CC(C)n1nc(C(=O)NCc2ccc(NC(=O)N3CCCCC3)cc2)c2c1CCN(c1ccc(C(=O)N(C)C)cn1)C2 [Example 144, 5-(5-(dimethylcarbamoyl)pyridin-2-yl)-1-isopropyl-N-(4-(piperidine-1-carboxamido)benzyl)-4,5,6,7-tetrahydro-1H-pyrazolo[4,3-c]pyridine-3-carboxamide] | –
15 | 252 | 26 | CC(=O)Nc1ccc(CNC(=O)c2nn(C(C)C)c3c2CN(c2ccc(C(=O)N(C)C)cn2)CC3)cc1 [Example 147, N-(4-acetamidobenzyl)-5-(5-(dimethylcarbamoyl)pyridin-2-yl)-1-isopropyl-4,5,6,7-tetrahydro-1H-pyrazolo[4,3-c]pyridine-3-carboxamide] | –
16 | 70 | 18 | CC(C)n1nc(C(=O)NCc2ccc(NC(=O)N3CC(C)(N(C)C)C3)cc2)c2c1CCN(c1ccc(C(=O)N(C)C)cn1)C2 [Example 150, N-(4-(3-(dimethylamino)-3-methylazetidine-1-carboxamido)benzyl)-5-(5-(dimethylcarbamoyl)pyridin-2-yl)-1-isopropyl-4,5,6,7-tetrahydro-1H-pyrazolo[4,3-c]pyridine-3-carboxamide] | –
17 | 155 | 31 | CC(C)n1nc(C(=O)NCc2ccc(NC(=O)N3CCC4(COC4)C3)cc2)c2c1CCN(c1ccc(C(=O)N(C)C)cn1)C2 [Example 152, N-(4-((5-(5-(dimethylcarbamoyl)pyridin-2-yl)-1-isopropyl-4,5,6,7-tetrahydro-1H-pyrazolo[4,3-c]pyridine-3-carboxamido)methyl)phenyl)-2-oxa-6-azaspiro[3.4]octane-6-carboxamide] | –
18 | 108 | 11 | CC(C)n1nc(C(=O)NCc2ccc(NC(=O)N3CC[C@H](F)C3)cc2)c2c1CCN(c1ccc(C(=O)N(C)C)cn1)C2 [Example 153, (S)-5-(5-(dimethylcarbamoyl)pyridin-2-yl)-N-(4-(3-fluoropyrrolidine-1-carboxamido)benzyl)-1-isopropyl-4,5,6,7-tetrahydro-1H-pyrazolo[4,3-c]pyridine-3-carboxamide] | –
19 | 58 | 6 | CC(C)n1nc(C(=O)NCc2ccc(NC(=O)N3CCC4(CC3)COC4)cc2)c2c1CCN(c1ccc(C(=O)N(C)C)cn1)C2 [Example 156, N-(4-((5-(5-(dimethylcarbamoyl)pyridin-2-yl)-1-isopropyl-4,5,6,7-tetrahydro-1H-pyrazolo[4,3-c]pyridine-3-carboxamido)methyl)phenyl)-2-oxa-7-azaspiro[3.5]nonane-7-carboxamide] | –
